Laboratory results taken from patent publication EP3443980A1, “COMPOUND FOR THE TREATMENT OF PATIENTS WITH LEPTIN-RESISTANT OBESITY, BARDET-BIEDL SYNDROME AND OTHER CILIOPATHIES” (Ciliocure Limited, priority 2017, dated 2019).

How the values were obtained:
Type in all cases: in vivo
[1] = test system: leptin-resistant obese mice carrying the M390R mutation in the Bbs1 gene (Bbs1^M390R); assay: Body weight and food intake of leptin-resistant obese Bbs1 M390R mice (Experiment 2); conditions: mouse model for Bardet-Biedl syndrome with leptin resistance
Excerpt: Experiment 2: The purpose of the experiment is to study the effects of GLP-1 receptor agonists on • body weight and food intake of leptin-resistant obese mice carrying the M390R mutation in the Bbs1 gene (Bbs1^M390R) and on • body weight and food intake of lean wild type littermate controls, both groups fed ad libitum. In this particular experiment the GLP-1 receptor agonist used is acetyl-GLP-1(7-34)amide. The M390R mutation in the Bbs1 gene can also be found in human Bardet-Biedl syndrome.
Male 12-16 weeks old mice are housed in individual cages for 3-5 days to acclimate to single housing conditions before baseline body weight and 24-hour food intake is determined during 4 days. Then food intake and body weight is tested in response to treatment with acetyl-GLP-1(7-34)amide. […]
During the treatment period, mice continue to have free access to food. […] At the end of the 7-day treatment period, body composition is determined in live mice using nuclear magnetic resonance (NMR) tomography. Mice are then sacrificed and the weight of various organs and tissues including various fat depots, liver, kidneys, heart, lung and brain are measured. […]

[2] = test system: mice carrying the M390R mutation in the Bbs1 gene (Bbs1^M390R); assay: Retinal degeneration (rod-cone dystrophy, retinal cell apoptosis) in Bbs1 M390R mice (Experiment 3); conditions: the same mouse model for Bardet-Biedl syndrome
Experimental: Experiment 3: The purpose of the experiment is to study the effects of GLP-1 receptor agonists on • Development of rod-cone dystrophy in mice carrying the M390R mutation in the Bbs1 gene (Bbs1^M390R). In this particular experiment the GLP-1 receptor agonist used is acetyl-GLP-1(7-34)amide. The M390R mutation in the Bbs1 gene can also be found in human Bardet-Biedl syndrome.
Male Bbs1^M390R mice are used in the experiment. From postnatal day 6 to postnatal day 30 the experimental group is treated intraperitoneally with acetyl-GLP-1 (7-34)amide. Mice of the control group are treated during the same age period with vehicle.
Analysis of endpoints: comparison of control vs GLP-1 At the end of the treatment period, mice are investigated by use of electroretinography (ERG), optical coherence tomography (OCT) and histology.

BBS12^-/- mice = assay: Apoptosis of photoreceptors in BBS12 model: retinal explants and BBS12-/- mice (Experiments 1a, 1b); conditions: another mouse model for Bardet-Biedl syndrome
Experimental: Experiment 1a: Effects of GLP-1 in ex-vivo model (retinal explants): In BBS12-deprived retinal explants and the Bbs12^/ murine model, impaired intraciliary transport results in protein retention in the endoplasmic reticulum. The protein overload activates a pro-apoptotic unfolded protein response leading to a specific Caspase12-mediated apoptosis of the photo-receptors. BBS12-deprived retinal explants are incubated with Ac-GLP-1 (7-34)amide and Caspase12-mediated apoptosis of the photo-receptors is compared to the apoptosis rate of BBS12-deprived retinal explants, which have been treated with the vehicle only.
• 15-day-old mice are sacrificed by decapitation, and the eyes are removed • First, the sclera is carefully removed, leaving the retinal pigmented epithelium attached to the eye ball. • Incisions are made at the edge of the cornea to remove cornea, lens, and hyaloid body. • Retinas are transferred, with retinal pigmented epithelium side down, to a culture membrane • Retina explants are maintained at 37 °C in a humidified 5% CO2 atmosphere. • Specific gene silencing with lentiviruses that carry a shRNA sequence for Bbs12 is performed. • Drugs are added to the culture medium […]

In the case of `CC[C@H](C)[C@H](NC(=O)[C@H](Cc1ccccc1)NC(=O)[C@H](CCC(=O)O)NC(=O)[C@H](CCCCN)NC(=O)[C@H](C)NC(=O)[C@H](C)NC(=O)[C@H](CCC(N)=O)NC(=O)CNC(=O)[C@H](CCC(=O)O)NC(=O)[C@H](CC(C)C)NC(=O)[C@H](Cc1ccc(O)cc1)NC(=O)[C@H](CO)NC(=O)[C@H](CO)NC(=O)[C@@H](NC(=O)[C@H](CC(=O)O)NC(=O)[C@H](CO)NC(=O)[C@@H](NC(=O)[C@H](Cc1ccccc1)NC(=O)[C@@H](NC(=O)CNC(=O)[C@H](CCC(=O)O)NC(=O)[C@H](C)NC(=O)[C@H](Cc1c[nH]cn1)NC(C)=O)[C@@H](C)O)[C@@H](C)O)C(C)C)C(=O)N[C@@H](C)C(=O)N[C@@H](Cc1c[nH]c2ccccc12)C(=O)N[C@@H](CC(C)C)C(=O)N[C@H](C(=O)N[C@@H](CCCCN)C(N)=O)C(C)C` [Ac-GLP-1 (7-34)amide, N-acetyl-GLP-1(7-34)amide], the food intake [1] is reported as “inhibit food intake”, the weight loss [1] is reported as “stimulate weight loss” and the “apoptosis of retinal cells” value [2] is reported as “inhibits apoptosis of retinal cells”. The “apoptosis of retinal cells” value (BBS12^-/- mice) was “inhibits apoptosis of retinal cells”.
